According to PubChem BioAssay (NCI):
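Here, GI50 denotes the concentration required for 50% inhibition of growth. At the TGI there is no net growth.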

How the values were obtained:
Experiment in all cases: NCI tumour cell line growth inhibition, 384-well format
[1] = system: 786-0 renal
[2] = system: A498 renal
[3] = system: A549 NSCLC
[4] = system: ACHN renal
[5] = system: BT-549 breast
[6] = system: CAKI-1 renal
[7] = system: CCRF-CEM leukemia
[8] = system: COLO 205 colon
[9] = system: DU-145 prostate
[10] = system: EKVX NSCLC
[11] = system: HCC-2998 colon
[12] = system: HCT-15 colon
[13] = system: HL-60(TB) leukemia
[14] = system: HOP-62 NSCLC
[15] = system: HOP-92 NSCLC
[16] = system: HS 578T breast
[17] = system: HT29 colon
[18] = system: IGROV1 ovarian
[19] = system: K-562 leukemia
[20] = system: KM12 colon
[21] = system: LOX IMVI melanoma
[22] = system: M14 melanoma
[23] = system: MALME-3M melanoma
[24] = system: MCF7 breast
[25] = system: MDA-MB-231 breast
[26] = system: MDA-MB-435 melanoma
[27] = system: MDA-MB-468 breast
[28] = system: MOLT-4 leukemia
[29] = system: NCI-H226 lung
[30] = system: NCI-H23 lung
[31] = system: NCI-H322M lung
[32] = system: NCI-H460 NSCLC
[33] = system: NCI-H522 lung
[34] = system: NCI/ADR-RES ovarian
[35] = system: OVCAR-3 ovarian
[36] = system: OVCAR-4 ovarian
[37] = system: OVCAR-5 ovarian
[38] = system: OVCAR-8 ovarian
[39] = system: PC-3 prostate
[40] = system: RPMI-8226 leukemia
[41] = system: RXF 393 renal
[42] = system: SF-268 CNS
[43] = system: SF-295 CNS
[44] = system: SF-539 CNS
[45] = system: SK-MEL-28 melanoma
[46] = system: SK-MEL-5 melanoma
[47] = system: SK-OV-3 ovarian
[48] = system: SN12C renal
[49] = system: SNB-19 CNS
[50] = system: SNB-75 CNS
[51] = system: SR leukemia
[52] = system: SW-620 colon
[53] = system: T-47D breast
[54] = system: TK-10 renal
[55] = system: UACC-257 melanoma
[56] = system: UACC-62 melanoma
[57] = system: UO-31 renal

How did the GI50 [1] turn out when `Cc1cncc(-c2nc(NCCc3c[nH]c4ccccc34)c3ncn(C(C)C)c3n2)c1` was run?
Its GI50 is 1.76 µM.

What about the TGI [1] of the same molecule?
Its TGI is 3.65 µM.

And the GI50 [2]?
The GI50 was 2.39 µM.

And the TGI [2]?
Its TGI is 6.39 µM.

What about the GI50 [3] of the same molecule?
Its GI50 is 3.84 µM.

And the TGI [3]?
Its TGI is 14.1 µM.

And the GI50 [4]?
The GI50 was 4.17 µM.

And the TGI [4]?
Its TGI is 13.5 µM.

What about the GI50 [5] of the same molecule?
The GI50 was 4.91 µM.

What about the TGI [5] of the same molecule?
The TGI was 15.4 µM.

And the GI50 [6]?
The GI50 was 3.96 µM.

What about the TGI [6] of the same molecule?
The TGI was 12.7 µM.

And the GI50 [7]?
Its GI50 is 2.11 µM.

And the TGI [7]?
The TGI was 4.22 µM.

What about the GI50 [8] of the same molecule?
The GI50 was 2.28 µM.

And the TGI [8]?
The TGI was 4.29 µM.

What about the GI50 [9] of the same molecule?
Its GI50 is 3.47 µM.

What about the TGI [9] of the same molecule?
Its TGI is 11.1 µM.

And the GI50 [10]?
Its GI50 is 4.24 µM.

And the TGI [10]?
Its TGI is 14 µM.

And the GI50 [11]?
The GI50 was 2.5 µM.

And the TGI [11]?
The TGI was 5 µM.

What about the GI50 [12] of the same molecule?
Its GI50 is 1.77 µM.

What about the TGI [12] of the same molecule?
Its TGI is 3.29 µM.

What about the GI50 [13] of the same molecule?
Its GI50 is 1.73 µM.

What about the TGI [13] of the same molecule?
The TGI was 3.15 µM.

And the GI50 [14]?
Its GI50 is 2.92 µM.

And the TGI [14]?
Its TGI is 8.22 µM.

What about the GI50 [15] of the same molecule?
Its GI50 is 3.76 µM.

What about the TGI [15] of the same molecule?
The TGI was 10.5 µM.

And the GI50 [16]?
The GI50 was 2.52 µM.

What about the TGI [16] of the same molecule?
The TGI was 5.41 µM.

What about the GI50 [17] of the same molecule?
The GI50 was 1.71 µM.

What about the TGI [17] of the same molecule?
Its TGI is 3.19 µM.

What about the GI50 [18] of the same molecule?
Its GI50 is 4.19 µM.

What about the TGI [18] of the same molecule?
Its TGI is 14.8 µM.

What about the GI50 [19] of the same molecule?
Its GI50 is 1.89 µM.

And the TGI [19]?
The TGI was 3.47 µM.

And the GI50 [20]?
The GI50 was 2.07 µM.

And the TGI [20]?
The TGI was 4.21 µM.

And the GI50 [21]?
Its GI50 is 4.15 µM.

And the TGI [21]?
Its TGI is 13.9 µM.

What about the GI50 [22] of the same molecule?
Its GI50 is 2.84 µM.

What about the TGI [22] of the same molecule?
Its TGI is 6.11 µM.

And the GI50 [23]?
The GI50 was 1.77 µM.

What about the TGI [23] of the same molecule?
Its TGI is 3.24 µM.

And the GI50 [24]?
Its GI50 is 3.42 µM.

And the TGI [24]?
The TGI was 9.2 µM.

And the GI50 [25]?
The GI50 was 4.16 µM.

What about the TGI [25] of the same molecule?
Its TGI is 12 µM.

And the GI50 [26]?
Its GI50 is 5.52 µM.

And the TGI [26]?
The TGI was 17.8 µM.

What about the GI50 [27] of the same molecule?
The GI50 was 2.21 µM.

And the TGI [27]?
The TGI was 4.14 µM.

And the GI50 [28]?
The GI50 was 1.87 µM.

What about the TGI [28] of the same molecule?
Its TGI is 3.55 µM.

What about the GI50 [29] of the same molecule?
Its GI50 is 4.34 µM.

And the TGI [29]?
The TGI was 11.3 µM.

What about the GI50 [30] of the same molecule?
Its GI50 is 3.81 µM.

What about the TGI [30] of the same molecule?
The TGI was 12.8 µM.

And the GI50 [31]?
The GI50 was 3.06 µM.

What about the TGI [31] of the same molecule?
Its TGI is 10.1 µM.

And the GI50 [32]?
Its GI50 is 2.26 µM.

And the TGI [32]?
The TGI was 4.53 µM.

And the GI50 [33]?
Its GI50 is 4.42 µM.

What about the TGI [33] of the same molecule?
Its TGI is 13.1 µM.

And the GI50 [34]?
Its GI50 is 3.29 µM.

And the TGI [34]?
Its TGI is 9.08 µM.

And the GI50 [35]?
The GI50 was 4.65 µM.

What about the TGI [35] of the same molecule?
The TGI was 14.3 µM.

What about the GI50 [36] of the same molecule?
The GI50 was 3.37 µM.

What about the TGI [36] of the same molecule?
Its TGI is 9.2 µM.

What about the GI50 [37] of the same molecule?
Its GI50 is 2.06 µM.

What about the TGI [37] of the same molecule?
Its TGI is 4.73 µM.

And the GI50 [38]?
Its GI50 is 4.05 µM.

And the TGI [38]?
The TGI was 13.6 µM.

What about the GI50 [39] of the same molecule?
Its GI50 is 3.19 µM.

And the TGI [39]?
Its TGI is 8.62 µM.

What about the GI50 [40] of the same molecule?
Its GI50 is 2.2 µM.

And the TGI [40]?
Its TGI is 3.78 µM.

What about the GI50 [41] of the same molecule?
Its GI50 is 1.96 µM.

And the TGI [41]?
The TGI was 4.63 µM.

And the GI50 [42]?
Its GI50 is 3.93 µM.

And the TGI [42]?
The TGI was 12.8 µM.

And the GI50 [43]?
Its GI50 is 1.93 µM.

And the TGI [43]?
Its TGI is 3.93 µM.

And the GI50 [44]?
The GI50 was 2.63 µM.

And the TGI [44]?
Its TGI is 7.18 µM.

And the GI50 [45]?
Its GI50 is 1.89 µM.

And the TGI [45]?
Its TGI is 3.94 µM.

And the GI50 [46]?
Its GI50 is 2.5 µM.

What about the TGI [46] of the same molecule?
Its TGI is 7.39 µM.

What about the GI50 [47] of the same molecule?
Its GI50 is 3.99 µM.

What about the TGI [47] of the same molecule?
Its TGI is 12.3 µM.

And the GI50 [48]?
Its GI50 is 5.32 µM.

And the TGI [48]?
Its TGI is 17.2 µM.

And the GI50 [49]?
Its GI50 is 5.5 µM.

What about the TGI [49] of the same molecule?
Its TGI is 18.8 µM.

What about the GI50 [50] of the same molecule?
The GI50 was 4.46 µM.

What about the TGI [50] of the same molecule?
The TGI was 16.8 µM.

What about the GI50 [51] of the same molecule?
The GI50 was 1.47 µM.

And the TGI [51]?
The TGI was 3.02 µM.

And the GI50 [52]?
The GI50 was 2.11 µM.

And the TGI [52]?
Its TGI is 3.74 µM.

What about the GI50 [53] of the same molecule?
Its GI50 is 3.57 µM.

And the TGI [53]?
Its TGI is 10.9 µM.

And the GI50 [54]?
The GI50 was 3.12 µM.

And the TGI [54]?
The TGI was 13.2 µM.

What about the GI50 [55] of the same molecule?
Its GI50 is 2.04 µM.

And the TGI [55]?
The TGI was 3.54 µM.

What about the GI50 [56] of the same molecule?
Its GI50 is 2.56 µM.

And the TGI [56]?
Its TGI is 5.81 µM.

What about the GI50 [57] of the same molecule?
Its GI50 is 4.64 µM.

And the TGI [57]?
Its TGI is 17.3 µM.
